Test results as given in publication PMC9028786, “The Ribosome Is the Ultimate Receptor for Trypsin Modulating Oostatic Factor (TMOF)” (Biomolecules, 2022).
Where two headings read alike, the source gives them in different places. Ends that are not written are not given here.

Legend:
luciferase = assay: Effect on activity of pre-synthesized luciferase; assay type: biochemical, Beetle; details: results not shown
Protocol: Incubations of E. coli S30 extract synthesizing Beetle luciferase in the presence of an increasing concentration of AeaTMOF (0.001 to 750 μM) stopped the biosynthesis of luciferase, diminishing its activity on Beetle luciferin as measured in luminescence units. The activity of the in vitro synthesized luciferase on Beetle luciferin at very low concentration of AeaTMOF (0.001 μM) was similar to luciferase activity without AeaTMOF, and this luminescence was used to calculate the decrease in luminescence (%) after incubation with increasing concentrations of AeaTMOF (Figure 1A). Higher concentrations of AeaTMOF (higher than 0.001 μM) caused a linear decrease in the synthesis of luciferase and a decline in luminescence (%) reaching IC50 (inhibition concentration of 50%) at 1 μM (Figure 1A). […] AeaTMOF is not an inhibitor of luciferase.

[1] = test system: E. coli CGSC strain7636 cells expressing SbmA^+; assay: Growth/viability of E. coli CGSC strain7636 expressing SbmA; assay type: cell-based, Escherichia coli; details: 3 and 10 mM peptide, 37 °C, 18 h, p < 0.05 vs control; for E. coli growth: 630 nm; for Viable colonies at end of incubation: initial 2.7 × 10^4 cells, LB medium, plated on LB agar, triplicates
Protocol: (§1) We aimed to find out if AeaTMOF can also stop bacterial growth as, was shown for the proline-rich Oncocin112 that binds to the bacterial ribosome, stopping protein translation, bacterial growth, and causing bacterial death. E. coli CGSC strain7636 (2.7 × 10^4 cells) SbmA^+, expressing the proline-rich peptides importer SbmA, were incubated in 96-well plate containing 100 μL/well of LB medium, 0.4 mM of IPTG, 0.1 mM of ampicillin, and different concentrations of AeaTMOF and Oncocin112 (1–13) (3 mM and 10 mM) in different wells. The 96-well plate was incubated at 37 °C for 18 h and bacterial growth was followed at 630 nm using Biotech ElX808 absorbance microplate reader. Control wells contained bacterial cells growing without AeaTMOF or oncocin112 (1–13). […] After the incubations in the presence of Oncocin112 (1–13) or AeaTMOF of 10 mM and 3 mM, aliquots (0.5 μL) were removed from each well and spread on LB agar plates containing 0.1 mM of ampicillin, and the plates were incubated overnight at 37 °C and viable colonies were counted. Incubations were done in triplicates and the experiments were repeated twice. Results are expressed as means of three determinations ± SEM.

bacterial 70 S ribosome = assay: Inhibition of luciferase translation in E. coli S30 extract; assay type: biochemical, Escherichia coli; details: for Inhibition of luciferase biosynthesis at lowest concentration: AeaTMOF at 0.001 μM, Oncocin112 (1–13) at 0.01 μM; for IC50: E. coli S30 lysate, pBestluc DNA, peptide 0.001 to 750 μM, luminescence read-out, mean of three determinations, read-out: IC50, inhibition of luciferase biosynthesis (luminescence)
Protocol: To test the effect of AeaTMOF and Oncocin112 (1–13) on the translation of Luciferase by the bacterial 70 S ribosome, an E. coli S30 lysate extract system for circular DNA (Promega) containing a plasmid pBestluc DNA vector (4486 bp) (1 mg/mL) 0.3 μL, amino acid mixture without methionine (1 mM) 1.25 μL, amino acid mixture without Leucine (1 mM) 1.25 μL, S30 premix (including ribosomes) without amino acids 5 μL, S30 extract circular 3.5 μL, RNasin (8 U, 112 ng) 0.2 μL, different concentrations of AeaTMOF or Oncocin112 (1–13) (0.001 μM to 1000 μM), and nuclease-free water to a volume of 12.5 μL were incubated for 2 h at 37 °C. […] After incubation, 87.5 μL of GLO lysis buffer (Promega) containing beetle luciferin was added, mixed, and aliquots (5 μL) were removed, and their luminescence read in a GLOMAX multidetector system. […] The decrease in luminescence (% ± SEM) in the presence of increasing log AeaTMOF or Oncocin112 (1–13) concentrations was then plotted using GrapPad Prism 3.

[2] = test system: E. coli mutant cells CGSC strain 8547 SbmA^- expressing only ABC-tmfA importer; assay: Growth/viability of E. coli mutant CGSC strain 8547 SbmA^- expressing ABC-tmfA importer; assay type: cell-based, Escherichia coli; details: for E. coli growth: SbmA^- cells expressing ABC-tmfA importer, 3 and 10 mM peptide, 37 °C, 18 h, 630 nm, p < 0.05 for inhibition; for E. coli cell growth (discussion): cells that only expressed ABCtmfA receptor/importer, up to 10 mM; for Importer used: inferred from growth of SbmA^+ and SbmA^- ABC-tmfA E. coli, 3 and 10 mM
Protocol: E. coli CGSC strain […] lacking the SbmA importer expressing the ABCtmfA receptor/importer was prepared using plasmid pTAC-MAT-2 ABCtmfA importer/receptor as described earlier. [3,4,5 ^3H]Leucine 250 μCi, Spc Act 100–150 Ci/mmol was purchased from Perkin Elmer (Waltham, MA, USA). AeaTMOF-FITC (H-YDPAPPPPPPK(FITC)K-OH) was synthesized at the University of Colorado Anschutz School of Medicine protein core. AeaTMOF-FITC was purified by HPLC showing a single peak, and mass spectrometry analysis of the peak identified the 3 expected ions at 455.7, 607.3, and 910.3, showing an expected Mr 1019.56 as was described earlier. Synthetic AeaTMOF (H-YDPAPPPPPP-OH) and a short Oncocin112(1–13) (H-VDKPPYLPRPRPP-OH), a 13 amino acids oncocin112 peptide, 6 amino acids shorter than the original oncocin112 of 19 amino acids, were synthesized and purified by HPLC [16]. After HPLC purifications of AeaTMOF, oncocin112 (1–13), and AeaTMOF-FITC, the TFA ions were exchanged with phosphate ions.
as §1

[3] = test system: ABC-tmfA transporter (accession number MK895491); details: cited from earlier work
Source text: (§2) Several of these ABC transporters with 80–100% similarity with the AeaTMOF receptor are also found in several Aedes, Anopheles, and ...

[4] = test system: trypsin mRNA in the gut epithelial cells; details: gut epithelial cells of Ae. aegypti and Neobellieria bullata; cited from earlier work
Source text: as §2

Ae. aegypti larvae = details: fed AeaTMOF expressed by engineered Chlorella desiccate, Saccharomyces cerevisiae, and Pichia pastoris; cited from earlier work
Source text: as §2

late trypsin transcript = details: cited from earlier work
Source text: (§3) Aedes aegypti Trypsin Modulating Oostatic Factor (AeaTMOF), a proline-rich peptide (YDPAPPPPPP), was originally isolated from the ovaries of female Ae. aegypti. AeaTMOF controls the biosynthesis of trypsin-like enzymes in the midgut epithelial cells of several species of mosquito including Aedes. aegypti, Culex quinquefasciatus, Culex. nigripalpus, and Anopheles albimanus. […] AeaTMOF was also ...

[5] = test system: late trypsin transcript in the gut epithelial cells; details: circulating in hemolymph of females after the blood meal; cited from earlier work
Source text: as §3

female mosquitoes = details: injection after blood meal; cited from earlier work
[6] = test system: S. frugiperda 80S ribosomes; assay: Inhibition of larval Ae. aegypti late trypsin translation in TnT T7 insect cell extract; assay type: biochemical, Spodoptera frugiperda; details: TnT T7 insect cell extract from S. frugiperda Sf21, pFA25A ICE T7 flexi-late larval trypsin, [3H]leucine, 30 °C, 4 h, AeaTMOF 0.01–750 μM; mean of three determinations; linear regression; read-out: IC50, inhibition of Ae. aegypti late larval [3H]trypsin biosynthesis

| Substance | Effect on Beetle luciferase biosynthesis versus activity (luciferase) | E. coli growth [1] | Viable colonies at end of incubation [1] | Inhibition of luciferase biosynthesis at lowest concentration (bacterial 70 S ribosome; 2 h at 37 °C) | IC50 (bacterial 70 S ribosome; 2 h at 37 °C) [nM] | IC50 increase compared with AeaTMOF (bacterial 70 S ribosome; IC50 2 μM versus AeaTMOF) | E. coli growth [2] | E. coli cell growth (discussion) [2] | Importer used [2] | Binding to gut receptor/importer [3] | Effect on translation of trypsin mRNA [4] | Effect on larvae (Ae. aegypti larvae) | Effect on activity of luciferase synthesized in vitro (luciferase; S30 extract with pBESTluc for 4 h without peptide, then AeaTMOF 1 to 100 μM added) | Inhibition of translation of late trypsin transcript (late trypsin transcript; AeaTMOF expressed on coat protein of Tobacco Mosaic Virus, fed to insects) | Inhibition of translation of late trypsin transcript (late trypsin transcript) | Effect on translation of late trypsin transcript [5] | Concentration of complete inhibition of luciferase biosynthesis (bacterial 70 S ribosome; E. coli S30 extract, 2 h at 37 °C, luminescence) [µM] | Effect on blood-fed female mosquitoes (female mosquitoes) | IC50 [6] [nM] |
| --- | --- | --- | --- | --- | --- | --- | --- | --- | --- | --- | --- | --- | --- | --- | --- | --- | --- | --- | --- |
| VDKPPYLPRPRPP [Oncocin112 (1–13), reference compound] | inhibits Beetle luciferase biosynthesis and not its activity | significantly inhibited the growth of the E. coli cells | 4–10 colonies | do not inhibit the biosynthesis of luciferase | 2000 | twofold increase | grew at the same rate | did not affect the cell growth, even at high concentrations of 10 mM | can only use the bacterial natural importer SbmA |  |  |  |  |  |  |  |  |  |  |
| YDPAPPPPPP [AeaTMOF] |  | significantly inhibited the growth of the E. coli cells | 4–10 colonies | do not inhibit the biosynthesis of luciferase | 1000 |  | significantly (p < 0.05) inhibited | inhibiting protein synthesis and cell growth | can use the mosquito ABCtmfA importer, as well as the bacterial SbmA importer | binds a gut-specific receptor ABC-tmfA transporter | stop the translation of trypsin mRNA | stopped larval trypsin biosynthesis and caused larval starvation and death | did not affect the activity of luciferase | stopped the translation of the trypsin transcript in the gut epithelial cells | inhibit the translation of the late trypsin transcript | affects the translation of the late trypsin transcript in the gut epithelial cells | 250 to 750 | only inhibits trypsin biosynthesis, and as a result the blood meal is not digested and egg development is inhibited, making the female mosquitoes sterile but not killing them | 1800 |
| NPTNLH [NebTMOF, NPTNLH, trypsin modulating oostatic factor of Neobellieria bullata, reference compound] |  |  |  |  |  |  |  |  |  |  | stop the translation of trypsin mRNA |  |  |  |  |  |  |  |  |
